Results reported in paper PMC7239831, “Suitability of Artificial Membranes in Lipolysis-Permeation Assays of Oral Lipid-Based Formulations” (Pharmaceutical Research, 2020).
Each block holds one compound with its values, some of them ahead of it.

How the values were obtained:
[1] = In vitro lipolysis-permeation assay of fenofibrate-loaded LBFs in the ENA device (porcine pancreatin); format: in vitro ADME
Protocol: Three formulations representing LFCS types IIIA-MC, IIIA-LC (long chain fatty acid component), and type IV (Table I) were assayed for their performance using artificial membranes in the ENA device. No more than one week before the assay, excipients were heated to 37°C before being weighed into a glass vial. The vial was capped with argon, vortexed, and then shaken overnight (450 rpm, 37°C). The formulations were then loaded with fenofibrate (80 mg/g) in the same manner, and shaken until complete dissolution.
The loaded formulations were weighed separately and then dispensed into ENA donor compartments (Fig. 1b) that had been prefilled with digestion medium spiked with LY to 10 μM (0.1% DMSO). Samples were taken from both compartments during dispersion (0–10 min) and digestion (10–100 min). Samples from the donor compartment were immediately filtered through a hydrophilic nylon syringe filter (Whatman PuraDisc 13, pore size 0.1 μm) to separate precipitates and oil droplets from fenofibrate in free solution and in colloidal aggregates, using the same procedures as those described in Juenemann et al. and Stillhart et al. ([28],[29]). The syringe filters were then flushed through with room temperature acetonitrile to recover precipitated fenofibrate. […] Phases were instead separated through centrifugation (37°C, 21,000 g for 15 min) for these samples. Receiver compartment samples were then quantified using UPLC-MS, and donor samples using HPLC-UV.
Fenofibrate was analyzed using a UV-DAD coupled HPLC (1290 Infinity, Agilent Technologies) with a Zorbax Eclipse XDB-C18 column (4.6 × 100 mm, Agilent Technologies) kept at 40°C (injection volume 20 μl). The mobile phase consisted of sodium acetate buffer (25 mM, pH 5.0) in acetonitrile solution (2:8 v/v) with isocratic flow (1 ml/min). UV absorbance was monitored at a wavelength of 287 nm. The retention time was 3.32 min. Sample preparation consisted of 100x dilution in mobile phase and a centrifugation step (21,000 g, 15 min, 25°C) to purify the matrix. […]

[2] = tested on: Caco-2 monolayer; assay: Caco-2 based lipolysis-permeation assay in ENA (data re-analyzed from Keemink et al.); details: average over formulations
[3] = parameters: method as in PMID 23500116, doi:10.1016/j.jddst.2016.06.013, PMID 28826878; details: cited from earlier work
[4] = Integrity assay under dynamic digestion conditions (LY mass transfer); format: in vitro ADME; details: LiDo on PVDF; up to two hours
Protocol: HDM, GIT-0 and LiDo membranes were subjected to in situ lipolysis of the IIIB-MC LBF in a 6-well culture plate format. Transwell inserts (diameter of 24 mm) were used for polycarbonate filters, and inserts were made in-house to hold the PVDF filters (diameter of 25 mm). For these lipolysis experiments, a modified digestion medium with greater buffering capacity was used. The digestion medium contained 200 mM Tris-maleate in these experiments to maintain pH within 0.3 units of the initial value of the lipolysis buffer (pH 6.5) over one hour of digestion (Table S2, Supplementary Material), since no autotitration could be used in the setup. LBF was weighed into a glass tube, and 10 ml of this modified digestion medium spiked with 10.3 μl of LY in DMSO solution (10 mM) was added and vortexed. […]
GIT-0 and LiDo membranes were also evaluated in a large-scale (75 mm diameter) in-house developed lipolysis-permeation device named “ENA” ([19]) in order to explore whether these two lipid mixtures with theoretically similar compositions and production methods also yielded similar results. […]
LY presence was detected using fluorescence (Spark or Safire^2 plate readers, Tecan, Austria) at 428 and 536 nm wavelength for excitation and emission, respectively. […]

[5] = Integrity assay with static digest matrix (LY mass transfer); format: in vitro ADME; details: GIT-0 membranes
Protocol: Six samples of 4 ml were taken during dispersion and digestion phases of single-compartment in vitro lipolysis (Fig. 1a) of a formulation over a period of 40 min. The formulation was of type IIIB-MC (medium chain length triglyceride component, 8–10 carbons) according to the Lipid Formulation Classification System (LFCS) ([27]), see Table I for composition. […] To visualize membrane integrity, Lucifer Yellow (LY) in DMSO solution was added to each sample to a final LY concentration of 10 μM and 0.1% DMSO. LY is highly hydrophilic; its permeation through intact lipid membranes should therefore be negligible. The sample tubes were then vortexed, and shaken at 450 rpm at 37°C until further use.
Digestion samples were dispensed (1.2 ml) into the donor compartments of Transwell inserts treated to form artificial membranes. Negative controls comprised only blank digestion medium or lipolysis buffer (both containing LY, 10 μM) in the donor compartment. Positive controls were untreated inserts composed of naked polycarbonate filters, or GIT-0 solution added to pre-wet filters (disrupts membrane formation). The receiver compartments contained 2 ml of either plain phosphate buffer (PB, 10 mM), Acceptor Sink Buffer (20 mM HEPES, 1% w/v SDS), or PB supplemented with 4% w/w bovine serum albumin (BSA). All receiver buffers were adjusted to pH 7.40.
From examination of mass transfer profiles, membrane damage was evaluated by Area Under the Curve (AUC) values of LY mass transfer over time. The criteria were that an LY AUC > 10 nmol min cm^−2 was considered to indicate major membrane disruption, while an LY AUC < 1 nmol min cm^−2 was considered to indicate an intact membrane.
LY presence was detected using fluorescence (Spark or Safire^2 plate readers, Tecan, Austria) at 428 and 536 nm wavelength for excitation and emission, respectively. Samples were diluted 1:2 in ice-cold acetonitrile and centrifuged (4°C, 2465 g for 20 min) to precipitate protein content.

Expected flux in vivo relative to flux over LiDo/Caco-2 ([1]; based on expected permeability in human small intestine): 10 fold | Flux of fenofibrate over LiDo relative to flux of cinnarizine over Permeapad ([1]; under comparable conditions, average, Permeapad data ref 40): 334 fold | Caco-2 permeability relative to LiDo after adjusting for filter porosity (ε) [2]: 1.8 fold | Ratio between Caco-2 and LiDo permeability ([2]; uncorrected Papp): 0.42
Compound: CC(C)OC(=O)C(C)(C)Oc1ccc(C(=O)c2ccc(Cl)cc2)cc1 [fenofibrate]
Permeability (in words) [3]: highly permeable

Detection of fenofibric acid (control of API degradation during lipolysis and sample storage) ([1]; UPLC-MS, all samples): no fenofibric acid could be detected
Compound: CC(C)(Oc1ccc(C(=O)c2ccc(Cl)cc2)cc1)C(=O)O [fenofibric acid]

LY permeation through membrane [4]: did not allow detectable levels | LY mass transfer AUC15-60 min ([5]; Fig. 2c, Acceptor Sink Buffer in receiver per legend, 30 min digestion sample): < LOQ | LY mass transfer AUC15-60 min ([5]; Fig. 2c, Acceptor Sink Buffer in receiver per legend, dispersion sample of IIIB-MC LBF): < LOQ | LY mass transfer AUC15-60 min ([5]; Fig. 2d, PB with 4% BSA in receiver per legend, 30 min digestion sample): < LOQ | LY mass transfer AUC15-60 min ([5]; Fig. 2d, PB with 4% BSA in receiver per legend, dispersion sample of IIIB-MC LBF): < LOQ
Compound: Lucifer Yellow CH dilithium salt [LY]
